According to patent US10696642B2, “TEAD transcription factor autopalmitoylation inhibitors” (The General Hospital Corporation, priority 2015, dated 2020):

Legend:
[1] = target: T1, TEAD4 (Homo sapiens, UniProt Q15561); assay: Selectivity assay: TEAD4 palmitoylation (Example 20); format: biochemical; conditions: 0 to 10 μM (FIG. 27)
Experimental: (§1) Assays were performed to measure inhibition of TEAD4 palmitoylation compared with other palmitoyl acyltransferses, DHHC4, DHHC7 and DHHC11. The ability of compound (4) (“CP-1”) to inhibit palmitoylation was tested at concentrations in the range from 0 to 10 μM and the amount of palmitoylation was quantified.

[2] = system: MCF10A+YAP cells; assay: Cell proliferation assay, YAP transformed MCF10A; format: cell-based; conditions: 500 cells/well, 10 μM (FIG. 20)
Experimental: In addition, the cells were treated with compound 4 (10 μM) or DMSO controls to evaluate cell viability.
(§2) Human cancer cell lines (HuH7, JHH7), transformed MCF10A-YAP and mouse Lats1/2 DKO cells were cultured in 5% FBS containing media. The cells were seeded into 96-well plate with 500 cells/well. Various concentrations of compounds (10 nM to 20 μM) or DMSO control were added into the wells. The cells were further incubated for 2-5 days. The cell viability is determined by using CellTiter Glo (Promega). The data were then normalized with DMSO control and plotted in Prism software Human melanoma cell A375 and dermal fibroblasts are control cells and are tested similarly.

[3] = target: T2, TEAD2 (Homo sapiens, UniProt Q15562); assay: In vitro autopalmitoylation of purified TEAD2 with 1 μM alkyne palmitoyl-CoA; format: biochemical
T2 construct: The cDNA encoding human TEAD2 (residues 217-447, TEAD2^217-447) was cloned into a pET29 vector; made in house; host or cells: E. coli BL21(DE3)-T1R
Experimental: Recombinant TEAD2 YBD was incubated with 1 μM of alkyne palmitoyl-CoA for 1 h in the presence of control (DMSO) or increasing 0.5-20 μM of compound 4. Palmitoylation of TEAD2 was detected by streptavidin blot.
(§3) Assays were performed to measure inhibition of TEAD2 and TEAD4 palmitoylation in vitro using purified TEAD2 and TEAD4 proteins and 1 μM of alkyne-palmitoyl-CoA. Compound (4) (“CP-1”) was tested at concentrations in the range from 0 to 10 μM and the amount of palmitoylation was quantified.

[4] = target: T1, TEAD4; assay: In vitro palmitoylation of purified TEAD4 with 1 μM alkyne-palmitoyl-CoA; format: biochemical; conditions: purified TEAD4, 1 μM alkyne-palmitoyl-CoA, 0 to 10 μM compound (FIG. 23)
Experimental: as §3

[5] = system: DHHC11; assay: Selectivity assay: palmitoyl acyltransferase DHHC11; format: biochemical; conditions: 0 to 10 μM (FIG. 27)
Experimental: as §1

[6] = system: HuH7 cells; assay: Cell proliferation assay, HuH7; format: cell-based, human
Experimental: as §2
Assays were performed to measure inhibition of cancer cell proliferation by compound (4). The ability of compound (4) (“CP-1”) to inhibit proliferation cell proliferation in the human hepatocellular carcinoma cell lines HuH7 and JHH7, and in the breast cancer cell line MDA-MB-453. The compound was also tested against the SK-HEP-1 (adenocarcinoma), BT-474 (breast tumor), OCUB-M (breast carcinoma), HCC1143 (ductal carcinoma), EVSA-T (ductal carcinoma) and BT-20 (breast carcinoma) cell lines.

[7] = target: T1, TEAD4; assay: TEAD4 palmitoylation in transfected cells; format: cell-based; conditions: 1 μM alkyne-palmitic acid probe, 0 to 10 μM compound (FIG. 24)
Experimental: (§4) Assays were performed to measure inhibition of TEAD1 and TEAD4 palmitoylation in cells that were transfected with TEAD1 and TEAD4 proteins and labelled with 1 μM of alkyne-palmitic acid probe. The ability of compound (4) (“CP-1”) to inhibit palmitoylation was tested at concentrations in the range from 0 to 10 μM and the amount of palmitoylation was quantified.

[8] = target: T3, TEAD1 (Homo sapiens, UniProt P28347); assay: TEAD1 palmitoylation in transfected cells; format: cell-based; conditions: 1 μM alkyne-palmitic acid probe, 0 to 10 μM compound (FIG. 24)
T3 construct: Myc; expressed in transfected cells
Experimental: as §4

T1 sequence (Q15561 whole entry, species assumed): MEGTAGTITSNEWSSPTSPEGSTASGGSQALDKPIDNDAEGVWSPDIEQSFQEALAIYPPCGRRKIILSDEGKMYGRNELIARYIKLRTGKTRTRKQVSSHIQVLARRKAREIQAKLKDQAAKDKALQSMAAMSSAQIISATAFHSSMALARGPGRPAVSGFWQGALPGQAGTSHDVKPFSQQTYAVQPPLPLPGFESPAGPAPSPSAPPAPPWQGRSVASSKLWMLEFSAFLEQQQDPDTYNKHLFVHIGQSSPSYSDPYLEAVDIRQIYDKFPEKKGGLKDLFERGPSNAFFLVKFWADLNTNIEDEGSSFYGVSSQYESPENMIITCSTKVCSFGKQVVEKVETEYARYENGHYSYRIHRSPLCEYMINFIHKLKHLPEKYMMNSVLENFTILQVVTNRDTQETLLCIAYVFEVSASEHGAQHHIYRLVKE
T2 sequence (Q15562 217-447): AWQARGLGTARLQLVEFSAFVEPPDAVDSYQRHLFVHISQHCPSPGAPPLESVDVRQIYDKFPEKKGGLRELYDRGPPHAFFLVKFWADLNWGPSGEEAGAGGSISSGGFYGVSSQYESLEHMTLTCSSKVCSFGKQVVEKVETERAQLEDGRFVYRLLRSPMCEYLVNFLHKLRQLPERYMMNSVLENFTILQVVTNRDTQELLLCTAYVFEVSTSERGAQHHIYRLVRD
T3 sequence (P28347 whole entry): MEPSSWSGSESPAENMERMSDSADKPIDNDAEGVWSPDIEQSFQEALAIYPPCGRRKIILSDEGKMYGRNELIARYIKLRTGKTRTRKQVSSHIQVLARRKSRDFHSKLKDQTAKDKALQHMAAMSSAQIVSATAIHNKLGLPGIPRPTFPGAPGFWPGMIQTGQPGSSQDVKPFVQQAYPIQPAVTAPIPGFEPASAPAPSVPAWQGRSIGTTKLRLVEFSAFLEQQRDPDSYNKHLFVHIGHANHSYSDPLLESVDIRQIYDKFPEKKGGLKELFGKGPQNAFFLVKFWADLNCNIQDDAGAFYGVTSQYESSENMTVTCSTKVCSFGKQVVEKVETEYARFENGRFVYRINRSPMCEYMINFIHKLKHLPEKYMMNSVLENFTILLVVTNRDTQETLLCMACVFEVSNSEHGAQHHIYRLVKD

O=C(CSc1nnc[nH]1)Nc1ccc(C23CC4CC(CC(C4)C2)C3)cc1 [Compound 4]
inhibition of TEAD4 palmitoylation [1]: dose-dependently inhibited
inhibition of YAP-dependent cancer cell proliferation [2]: inhibits
inhibition of TEAD2 YBD autopalmitoylation in vitro ([3]; 1 μM alkyne palmitoyl-CoA, 1 h, 0.5-20 μM compound, streptavidin blot (FIG. 9)): dose-dependently inhibits
inhibition of TEAD2 palmitoylation in vitro ([3]; purified TEAD2, 1 μM alkyne-palmitoyl-CoA, 0 to 10 μM compound (FIG. 23)): dose-dependently inhibited
inhibition of TEAD4 palmitoylation in vitro [4]: dose-dependently inhibited
inhibition of palmitoylation with DHHC11 [5]: did not inhibit
IC50 ([6]; Homo sapiens, Huh-7, FIG. 28 panel C): 1.6 µM
inhibition of cell proliferation, dose dependency ([6]; HuH7 (FIG. 28 panel A)): dose-dependently inhibits
inhibition of YAP-dependent cancer cell proliferation ([6]; HuH7, 500 cells/well, 10 μM (FIG. 19)): inhibits
inhibition of TEAD4 palmitoylation in cells [7]: dose-dependently inhibited
inhibition of TEAD1 palmitoylation in cells [8]: dose-dependently inhibited
